Results from patent US7135466B2 (Kirin Beer Kabushiki Kaisha, priority 1999, dated 2006).

Columns and labels:
PDGF-Ra = biological target: T1, PDGF-Ra (Homo sapiens, UniProt P16234); experiment: Inhibitory activity against PDGF-Ra phosphorylation by PDGF-AA stimulation using G292; type: cell-based; settings: for IC50: > means inhibition at indicated concentration not more than 50%, < and << not less than 50%, read-out: PDGF (E) IC50; for inhibition at 0.1 µM: G292, figure within parentheses in >100( ), at 100 nM, read-out: PDGF (E) inhibition (%) at 100 nM
T1 construct: host or cells: G-292 human osteosarcoma cells
Summary of the method: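 Phospho-PDGF-Ra ELISA: capture with PY-20 antiphosphotyrosine, detection with anti-PDGF-Ra and peroxidase secondary, read at 450 nm. Lysates came from G-292 osteosarcoma cells starved in 0.1% FBS, compound-treated 1 hr at 37° C, and stimulated with 50 ng/ml PDGF-AA for 5 min.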

c-kit = biological target: T2, c-kit (Homo sapiens, UniProt P10721); experiment: Inhibitory activity against c-kit autophosphorylation (MO7e cells, h-SCF); type: cell-based; settings: for inhibition at 1 µM: Mo7e, figure within parentheses in −( ) or >1000( ), at 1000 nM; for IC50: MO7e cells, 50 ng/ml h-SCF, read-out: c-kit IC50
T2 construct: MO7e (human megakaryocytic leukemia cell line) which had been arrested for 20 hr; endogenous in cells; host or cells: MO7e human megakaryocytic leukemia cell line
Summary of the method: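 Phospho-c-kit ELISA: plate-bound PY-20 anti-phosphotyrosine captures lysate, anti-c-kit plus peroxidase-labelled secondary antibody detect, read at 450 nm. Lysates come from 20 hr-arrested MO7e cells given compound for 1 hr before a 5 min 50 ng/ml h-SCF stimulus.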

T1 sequence (P16234 24-1089): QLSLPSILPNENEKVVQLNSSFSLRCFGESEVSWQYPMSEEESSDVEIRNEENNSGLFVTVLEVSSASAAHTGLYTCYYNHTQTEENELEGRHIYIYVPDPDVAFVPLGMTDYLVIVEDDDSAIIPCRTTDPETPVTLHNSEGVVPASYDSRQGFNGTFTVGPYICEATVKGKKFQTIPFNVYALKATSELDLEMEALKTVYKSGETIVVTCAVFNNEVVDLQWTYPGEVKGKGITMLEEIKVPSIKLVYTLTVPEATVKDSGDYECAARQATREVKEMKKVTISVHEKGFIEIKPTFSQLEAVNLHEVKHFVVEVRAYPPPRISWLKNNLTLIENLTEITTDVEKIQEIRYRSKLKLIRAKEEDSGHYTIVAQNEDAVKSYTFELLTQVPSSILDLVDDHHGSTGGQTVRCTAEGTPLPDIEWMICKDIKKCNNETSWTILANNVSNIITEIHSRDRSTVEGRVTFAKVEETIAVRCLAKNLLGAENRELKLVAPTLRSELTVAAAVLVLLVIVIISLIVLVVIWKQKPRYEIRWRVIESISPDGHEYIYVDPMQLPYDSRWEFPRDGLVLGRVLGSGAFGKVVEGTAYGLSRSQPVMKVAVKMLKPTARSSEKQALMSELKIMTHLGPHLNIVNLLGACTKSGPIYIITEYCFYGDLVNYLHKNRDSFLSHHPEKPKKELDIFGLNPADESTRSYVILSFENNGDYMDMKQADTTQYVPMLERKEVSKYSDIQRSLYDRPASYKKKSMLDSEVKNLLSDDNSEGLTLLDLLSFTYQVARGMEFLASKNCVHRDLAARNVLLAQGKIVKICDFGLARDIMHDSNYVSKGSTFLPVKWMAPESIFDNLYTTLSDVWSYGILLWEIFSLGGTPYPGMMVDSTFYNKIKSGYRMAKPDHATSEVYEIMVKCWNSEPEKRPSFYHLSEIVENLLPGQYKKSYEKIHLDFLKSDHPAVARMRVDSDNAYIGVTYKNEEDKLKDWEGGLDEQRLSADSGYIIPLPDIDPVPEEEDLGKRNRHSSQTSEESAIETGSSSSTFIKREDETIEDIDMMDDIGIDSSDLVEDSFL
T2 sequence (P10721 26-976): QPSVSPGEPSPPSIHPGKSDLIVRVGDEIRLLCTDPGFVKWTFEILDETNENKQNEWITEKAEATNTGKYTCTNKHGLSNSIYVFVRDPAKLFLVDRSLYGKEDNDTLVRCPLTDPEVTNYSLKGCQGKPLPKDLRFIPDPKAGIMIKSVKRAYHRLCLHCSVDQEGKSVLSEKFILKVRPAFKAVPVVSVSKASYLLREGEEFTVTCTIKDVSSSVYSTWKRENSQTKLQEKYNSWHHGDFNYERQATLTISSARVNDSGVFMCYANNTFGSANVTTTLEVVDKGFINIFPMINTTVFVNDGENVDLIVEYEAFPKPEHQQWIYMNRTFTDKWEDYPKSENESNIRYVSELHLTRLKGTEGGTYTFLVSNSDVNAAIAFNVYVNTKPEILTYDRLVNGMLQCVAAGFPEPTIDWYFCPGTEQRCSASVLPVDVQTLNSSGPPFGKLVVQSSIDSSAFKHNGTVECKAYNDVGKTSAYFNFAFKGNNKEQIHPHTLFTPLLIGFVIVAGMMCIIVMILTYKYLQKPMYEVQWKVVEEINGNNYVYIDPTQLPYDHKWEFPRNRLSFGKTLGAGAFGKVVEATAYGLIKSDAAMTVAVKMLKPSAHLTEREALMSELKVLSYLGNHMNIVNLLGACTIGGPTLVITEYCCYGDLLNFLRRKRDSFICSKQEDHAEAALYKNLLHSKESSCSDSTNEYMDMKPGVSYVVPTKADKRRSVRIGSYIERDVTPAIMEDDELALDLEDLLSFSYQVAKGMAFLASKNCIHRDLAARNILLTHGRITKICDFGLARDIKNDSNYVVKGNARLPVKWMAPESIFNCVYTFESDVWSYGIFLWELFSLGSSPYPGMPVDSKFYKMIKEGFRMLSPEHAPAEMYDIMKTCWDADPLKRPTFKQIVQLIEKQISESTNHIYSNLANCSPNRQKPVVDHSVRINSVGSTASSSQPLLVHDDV

IC50 (PDGF-Ra) [nM] | inhibition at 1 µM (c-kit) [%] | inhibition at 0.1 µM (PDGF-Ra) [%] | IC50 (c-kit) [nM] | Compound
34 | 19 |  |  | CCCCN(CCCC)CCNC(=O)Nc1ccc(Oc2ncnc3cc(OC)c(OC)cc23)cc1OC [Example 688, N-[2-(Dibutylamino)ethyl]-N′-{4-[(6,7-dimethoxy-4-quinazolinyl)oxy]-2-methoxyphenyl}urea]
> 100 |  | 42 | 571 | CCCCN(CCCC)CCNC(=O)Nc1ccc(Oc2ccnc3cc(OC)c(OC)cc23)cc1OC [Example 689, N-[2-(Dibutylamino)ethyl]-N′-{4-[(6,7-dimethoxy-4-quinolyl)oxy]-2-methoxyphenyl}urea]
> 100 | 11 | 10 |  | COc1cc2ncnc(Oc3ccc(NC(=O)N4CCN(Cc5ccccc5)CC4)cc3)c2cc1OC [Example 690, N1-{4-[(6,7-Dimethoxy-4-quinazolinyl)oxy]phenyl}-4-benzyl-1-piperazinecarboxamide]
> 100 | 18 | 10 |  | COc1cc2ncnc(Oc3ccc(NC(=O)N4CCN(c5ccccc5)CC4)cc3)c2cc1OC [Example 691, N1-{4-[(6,7-Dimethoxy-4-quinazolinyl)oxy]phenyl}-4-phenyl-1-piperazinecarboxamide]
> 100 | 20 | 35 | > 1000 | COc1cc2nccc(Oc3ccc(NC(=S)NC(=O)c4ccc(Br)s4)c(C)c3)c2cc1OC [Example 692, N-[(5-Bromo-2-thienyl)carbonyl]-N′-{4-[(6,7-dimethoxy-4-quinolyl)oxy]-2-methylphenyl}thiourea]
56 | 46 |  | > 1000 | COc1cc2nccc(Oc3ccc(NC(=S)NC(=O)c4ccc(Br)s4)cc3Cl)c2cc1OC [Example 693, N-[(5-Bromo-2-thienyl)carbonyl]-N′-{3-chloro-4-[(6,7-dimethoxy-4-quinolyl)oxy]phenyl}thiourea]
> 100 | 37 | 12 |  | COc1cc2nccc(Oc3ccc(NC(=S)NC(=O)c4ccc(Cl)s4)c(C)c3)c2cc1OC [Example 694, N-[(5-Chloro-2-thienyl)carbonyl]-N′-{4[(6,7-dimethoxy-4-quinolyl)oxy]-2-methylphenyl}thiourea]
> 100 | 37 | 10 |  | COc1cc2nccc(Oc3ccc(NC(=S)NC(=O)c4ccc(Cl)s4)cc3Cl)c2cc1OC [Example 695, N-{3-Chloro-4-[(6,7-dimethoxy-4-quinolyl)oxy]phenyl}-N′-[(5-chloro-2-thienyl)carbonyl]thiourea]
> 100 | 35 | 37 |  | COc1cc2nccc(Oc3ccc(NC(=S)NC(=O)CCSC)c(C)c3)c2cc1OC [Example 696, N-{4-[(6,7-Dimethoxy-4-quinolyl)oxy]-2-methylphenyl}-N′-[3-(methylthio)propanoyl]-thiourea]
< 10 |  |  | 211 | COc1cc2nccc(Oc3ccc(NC(=S)NC(=O)CCSC)cc3Cl)c2cc1OC [Example 697, N-{3-Chloro-4-[(6,7-dimethoxy-4-quinolyl)oxy]phenyl}-N′-[3-(methylthio)propanoyl]thiourea]
> 100 | 29 | 34 |  | COc1cc2nccc(Oc3ccc(NC(=S)NC(=O)c4cc(C)oc4C)c(C)c3)c2cc1OC [Example 698, N-{4-[(6,7-Dimethoxy-4-quinolyl)oxy]-2-methylphenyl}-N′-[(2,5-dimethyl-3-furyl)carbonyl]thiourea]
13 | 29 |  |  | COc1cc2nccc(Oc3ccc(NC(=S)NC(=O)c4cc(C)oc4C)cc3Cl)c2cc1OC [Example 699, N-{3-Chloro-4-[(6,7-dimethoxy-4-quinolyl)oxy]phenyl}-N′-[(2,5-dimethyl-3-furyl)carbonyl]thiourea]
> 100 | 0 | 30 |  | COc1cc2nccc(Oc3ccc(NC(=S)NC(=O)Cc4cccs4)c(C)c3)c2cc1OC [Example 700, N-{4-[(6,7-Dimethoxy-4-quinolyl)oxy]-2-methylphenyl}-N′-[2-(2-thienyl)acetyl]thiourea]
< 10 |  |  | 459 | COc1cc2nccc(Oc3ccc(NC(=S)NC(=O)Cc4cccs4)cc3Cl)c2cc1OC [Example 701, N-{3-Chloro-4-[(6,7-dimethoxy-4-quinolyl)oxy]phenyl}-N′-[2-(2-thienyl)acetyl]thiourea]
< 10 |  |  | 495 | COc1cc2nccc(Oc3ccc(NC(=S)NC(=O)Cc4ccccc4C)cc3Cl)c2cc1OC [Example 702, N-{3-Chloro-4-[(6,7-dimethoxy-4-quinolyl)oxy]phenyl}-N′-[2-(2-methylphenyl)acetyl]thiourea]
< 10 |  |  | 375 | COc1cc2ncnc(Oc3ccc(NC(=S)NC(=O)Cc4ccccc4C)cc3)c2cc1OC [Example 703, N-{4-[(6,7-Dimethoxy-4-quinazolinyl)oxy]phenyl}-N′-[2-(2-methylphenyl)acetyl]thiourea]

IC50 (PDGF-Ra) [nM] | inhibition at 1 µM (c-kit) [%] | inhibition at 0.1 µM (PDGF-Ra) [%] | IC50 (c-kit) [nM] | Compound
16 |  |  | 177 | COc1cc2nccc(Oc3ccc(NC(=S)NC(=O)CC4CCCCC4)cc3Cl)c2cc1OC [Example 704, N-{3-Chloro-4-[(6,7-dimethoxy-4-quinolyl)oxy]phenyl}-N′-(2-cyclohexylacetyl)thiourea]
< 10 |  |  | 147 | COc1cc2ncnc(Oc3ccc(NC(=S)NC(=O)CC4CCCCC4)cc3)c2cc1OC [Example 705, N-(2-Cyclohexylacetyl)-N′-{4-[(6,7-dimethoxy-4-quinazolinyl)oxy]phenyl}thiourea]
< 10 |  |  | 227 | COc1cc2nccc(Oc3ccc(NC(=S)NCc4ccccc4)cc3Cl)c2cc1OC [Example 706, N-Benzyl-N′-{3-chloro-4-[(6,7-dimethoxy-4-quinolyl)oxy]phenyl}thiourea]
17 |  |  | 209 | COc1cc2ncnc(Oc3ccc(NC(=S)NCc4ccccc4)cc3)c2cc1OC [Example 707, N-Benzyl-N′-{4-[(6,7-dimethoxy-4-quinazolinyl)oxy]phenyl}thiourea]
51 |  |  | 348 | COc1cc2nccc(Oc3ccc(NC(=S)NC(=O)Cc4cccc5ccccc45)cc3Cl)c2cc1OC [Example 708, N-{3-Chloro-4-[(6,7-dimethoxy-4-quinolyl)oxy]phenyl}-N′-[2-(1-naphthyl)acetyl]thiourea]
19 | 19 |  |  | COc1cc2ncnc(Oc3ccc(NC(=S)NC(=O)Cc4cccc5ccccc45)cc3)c2cc1OC [Example 709, N-{4-[(6,7-Dimethoxy-4-quinazolinyl)oxy]phenyl}-N′-[2-(1-naphthyl)acetyl]thiourea]
> 100 | 30 | 33 |  | COc1cc2nccc(Oc3ccc(NC(=S)NC(=O)Cc4ccc5ccccc5c4)cc3Cl)c2cc1OC [Example 710, N-{3-Chloro-4-[(6,7-dimethoxy-4-quinolyl)oxy]phenyl}-N′-[2-(2-naphthyl)acetyl]thiourea]
> 100 | 17 | 34 |  | COc1cc2ncnc(Oc3ccc(NC(=S)NC(=O)Cc4ccc5ccccc5c4)cc3)c2cc1OC [Example 711, N-{4-[(6,7-Dimethoxy-4-quinazolinyl)oxy]phenyl}-N′-[2-(2-naphthyl)acetyl]thiourea]
67 |  |  | 89 | COc1ccc(CCC(=O)NC(=S)Nc2ccc(Oc3ncnc4cc(OC)c(OC)cc34)cc2)cc1OC [Example 713, N-[3-(3,4-Dimethoxyphenyl)propanoyl]-N′-{4-[(6,7-dimethoxy-4-quinazolinyl)oxy]phenyl}thiourea]
16 |  |  | 248 | COc1cc2nccc(Oc3ccc(NC(=S)NC(=O)COc4ccccc4Cl)cc3Cl)c2cc1OC [Example 714, N-{3-Chloro-4-[(6,7-dimethoxy-4-quinolyl)oxy]phenyl}-N′-[2-(2-chlorophenoxy)acetyl]thiourea]
11 | 19 |  |  | CCOc1ccc(C(=O)NC(=S)Nc2ccc(Oc3ncnc4cc(OC)c(OC)cc34)cc2)cc1 [Example 716, N-{4-[(6,7-Dimethoxy-4-quinazolinyl)oxy]phenyl}-N′-(4-ethoxybenzoyl)thiourea]
< 10 | 19 |  |  | COc1cc2ncnc(Oc3ccc(NC(=S)NC(=O)c4cc(C)oc4C)cc3)c2cc1OC [Example 718, N-{4-[(6,7-Dimethoxy-4-quinazolinyl)oxy]phenyl}-N′-[(2,5-dimethyl-3-furyl)carbonyl]thiourea]
14 |  |  | 431 | CCCCC(=O)NC(=S)Nc1ccc(Oc2ccnc3cc(OC)c(OC)cc23)c(Cl)c1 [Example 719, N-{3-Chloro-4-[(6,7-dimethoxy-4-quinolyl)oxy]phenyl}-N′-pentanoylthiourea]
42 |  |  | 30 | CCCCC(=O)NC(=S)Nc1ccc(Oc2ncnc3cc(OC)c(OC)cc23)cc1 [Example 720, N-{4-[(6,7-Dimethoxy-4-quinazolinyl)oxy]phenyl}-N′-pentanoylthiourea]
36 | 20 |  |  | COc1cc2nccc(Oc3ccc(NC(=S)NC(=O)CCc4ccc(C)cc4)cc3)c2cc1OC [Example 721, N-{4-[(6,7-Dimethoxy-4-quinolyl)oxy]phenyl}-N′-[3-(4-methylphenyl)propanoyl]thiourea]
